Key:
Assay type in all cases: cell-based
P. Parvum [1] = experiment: Growth curves of oxamate treated algae (spike-in); conditions: small-scale cultures, oxamate added every three days, vs growth medium only
Description: Small-scale […] P. Parvum cultures were grown and treated with oxamate. Four (A-D in FIG. 13) of the small scale cultures were treated with oxamate stock in growth medium, added every three days, corresponding to the points on the curve. Two (E-F in FIG. 13) of the cultures had only growth medium added.

KAS603, a Chlorella sp. [2] = experiment: Culture growth: dry weight density and chlorophyll a during compound treatment; conditions: four 80 L cultures during the treatment period
Description: Algal growth: KAS603, a Chlorella sp. was scaled in F/2 growth medium to ˜300 L in a vertical air lift bioreactor under 12/12 artificial illumination. Growth of the culture was monitored for density, chlorophyll accumulation, and for the presence of invasive species. Growth kinetics were typical and observation of invasive species was limited (sparse bacteria) and typical. The algae were grown under nutrient rich and light limiting conditions. […] Dry Weight Analysis: 10 ml of control and treated culture samples were pelleted via centrifugation at 3000 rpm for 5 minutes. The pellet was washed 1× with dH2O to remove salts. Following a second centrifugation step, the pellet was transferred to a pre-weighed aluminum dish and dried to a constant weight at 26.5° C. Cellular Growth/Density: Cellular growth and density can be characterized by the concentration of chlorophyll a in a sample. Chlorophyll a absorbs light at 435 nm and 680 nm, which can be accurately measured spectrophotometrically. Prior to the dry weight analysis, 10 ml samples were analyzed for absorbance at 435 nm and 680 nm. Based on the established chlorophyll a standard curve, chlorophyll a was calculated and reported as “mg chlorophyll a”.

Schizochytrium sp. = experiment: Nile Red fluorescence within cells after sodium oxamate; conditions: range of sodium oxamate concentrations
P. Parvum [3] = experiment: as above; conditions: range of sodium oxamate concentrations
Chlorella sp. = experiment: as above; conditions: range of sodium oxamate concentrations
KAS603, a Chlorella sp. [4] = experiment: Total lipid extraction with HPLC/TLC lipid profile after sodium oxamate treatment
Description: Sodium Oxamate Dosing: Sodium oxamate was added to three of the four cultures (see FIG. 1). A 1 L sample was collected at time 0, 24 and 48 hours for each culture (a total of 4 samples per time point). The algal cells were pelleted and oils extracted at each time point. Quantitative oil profiles of extracted lipids were generated by TLC and HPLC.
(§1) Algal growth: KAS603, a Chlorella sp. was scaled in F/2 growth medium to ˜300 L in a vertical air lift bioreactor under 12/12 artificial illumination. Growth of the culture was monitored for density, chlorophyll accumulation, and for the presence of invasive species. Growth kinetics were typical and observation of invasive species was limited (sparse bacteria) and typical. The algae were grown under nutrient rich and light limiting conditions.
Total lipid extraction: 1 L samples were pelleted via centrifugation at 3000 rpm for 5 min. The pellets were resuspended in 10 ml of methanol and incubated at 65° C. for 1 h. The methanol was replaced with chloroform and incubated at 50° C. for 10 min. The chloroform was replaced with hexane and incubated at 50° C. for an additional 10 min. The extracts were pooled and distilled. The weights of the dried extracts were recorded prior to resuspension in 100 μl chloroform for TLC analysis, or in 2:1 chloroform:methanol (v/v) to a final concentration of ˜10 mg/mL and loaded for HPLC analysis (Surveyor LC Pump and Autosampler Plus, Thermo Finnegan). A splitter (Analytical Scientific Instruments) was employed to divide the sample 1:20 between a quadrapole MS (Thermo Finnegan MSQ Plus) and an ELSD (Sedere Sedex 75), respectively.
(§2) Lipid Analyses: TLC—Dried extracts were resuspended in 100 μl of CHCl3. 2.5 μl of each sample was spotted onto silica gel matrix TLC plates (Sigma #2599) and resolved with hexane:diethyl ether:acetic acid (80:20:1). Carotenoids such as β-carotene were visible as yellow bands on the plate, while chlorophyll and chlorophyll breakdown products were visible as green or green/gray bands, respectively. Lipids other than carotenoids and chlorophyll were visualized with iodine vapors. The extracted samples were compared to commercially available lipid standards consisting of 1 μg/μl each of glyceryl trioleate (TAG), 1,3-Diolein (1,3 DAG), 1,2-dioleoyl-rac-glycerol (1,2 DAG), monoolein (MAG), and oleic acid (FFA).

algal cells = experiment: Nile Red fluorescence in growth medium after glyburide; conditions: following treatment with glyburide
P. Parvum [5] = experiment: Oil secretion in P. Parvum cultures after glyburide (surface sheen, TLC of supernatant extract)
Description: A control culture of P. Parvum was grown and split into two 500 mL cultures. Glyburide was added to one of the cultures and the culture was shaken for 24 h.
A 1 L P. parvum culture (˜2 million cells/mL) treated with oxamate was split into two subcultures of 400 mL each. Glyburide dissolved in DMSO was added to one subculture. The other subculture received the DMSO carrier (control) that the glyburide had been dissolved in. The two cultures were incubated on the shaker for 24 h and subsequently off the shaker for ˜2 h.
The cells were then pelleted and a 200 mL sample of the culture supernatant was removed from each culture. Each of the removed samples was briefly extracted with nonpolar solvent. The organic extracts were then dried down and the remainder was resuspended in an equal volume of solvent. An equal volume of each (as well as pure TAG as a standard) was loaded on a TLC plate. A chromatogram was developed and stained with iodine vapors. […] Both subcultures had similar amounts of phospholipids (PL). This is likely due to the presence of dead cell membranes in the supernatant extract. Both test samples also had either some monoglycerides (MG) or more likely, the pigment fucoxanthin.

KAS603, a Chlorella sp. [6] = experiment: Recovery and measurement of extracellular lipids (hexane sweep, weight, HPLC, TLC) after glyburide treatment; conditions: for Weights of oil recovered from outside cells following glyburide treatment: from 1 L of culture
Description: Glyburide Dosing: After 48 hours, the sodium oxamate time course was complete. A 1 L sample of each culture was collected and treated to recover oil outside the cells (if any) at t=0. The three cultures that had previously been treated with sodium oxamate were subsequently treated with 0.05 mM glyburide. Extracellular lipids in 1 L aliquots of the cultures were collected at 4 hours and 24 hours after the addition of glyburide by hexane sweep; dry cell weights were also calculated on separate aliquots of the culture. Oils recovered were analyzed via TLC and HPLC.
as §1, §2
Recovery and Measurement of Extracellular Lipids: Cells that were exposed to the secretion compound glyburide were swept briefly with hexane at room temperature. 50 ml of hexane was added to 1 L samples from each study group, then mixed thoroughly, but gently, by inversion. The cells were re-centrifuged and the hexane layer containing the recovered lipids was transferred to a pre-weighed vial. The hexane was evaporated and the dried lipids were re-weighed. The dried lipids were subsequently analyzed by TLC or HPLC/MS as described.

## NC(=O)C(=O)[O-].[Na+] [sodium oxamate]
P. Parvum [1]
  cell concentrations achieved: higher cell concentrations than did the controls
  onset of culture decline: began to decline sooner than the controls
KAS603, a Chlorella sp. [2]
  effect of compound treatment on culture growth: no evidence that compound treatment slowed growth
Schizochytrium sp.
  Nile Red fluorescence within cells: increases in Nile Red fluorescence
P. Parvum [3]
  Nile Red fluorescence within cells: increases in Nile Red fluorescence
Chlorella sp.
  Nile Red fluorescence within cells: increases in Nile Red fluorescence
KAS603, a Chlorella sp. [4]; 0.3 mM sodium oxamate at 48 h vs untreated control at time 0
  uncharacterized polar lipids (HPLC): increases in uncharacterized polar lipids
KAS603, a Chlorella sp. [4]; 0.3 mM sodium oxamate, treated versus untreated groups
  chlorophyll and total lipids in total extracts (HPLC): increases in chlorophyll and total lipids were detected
KAS603, a Chlorella sp. [4]; 0.3 mM sodium oxamate, up to 48 h
  TAG accumulation in oil extracts: Significant TAG accumulation was not found
KAS603, a Chlorella sp. [4]; oxamate treated cultures vs untreated
  quantity of "other" lipid species: trended higher
KAS603, a Chlorella sp. [4]; oxamate treated vs untreated groups
  undefined lipids (UN) in total extracts by TLC: did not differ between treated and untreated groups
KAS603, a Chlorella sp. [4]; throughout the oxamate treatment phase
  Hydrocarbon (HC) and β-carotene (BC) concentrations, TLC of total extracts: remained consistent

## COc1ccc(Cl)cc1C(=O)NCCc1ccc(S(=O)(=O)NC(=O)NC2CCCCC2)cc1 [glyburide]
Algal cells
  Nile Red fluorescence in the growth medium environment: an increase in Nile Red fluorescence
KAS603, a Chlorella sp. [2]
  effect of compound treatment on culture growth: no evidence that compound treatment slowed growth
P. Parvum [5]; 500 mL culture, glyburide 24 h, no oxamate, vs control culture
  oily sheen on the culture surface: much more prevalent
P. Parvum [5]; glyburide/oxamate-treated subculture vs DMSO control on oxamate
  lipid (TAG) in culture supernatant extract, TLC: increase the production and/or secretion of lipid, specifically triacylglyceride (TAG)
P. Parvum [5]; oxamate treated culture, 400 mL subculture, glyburide in DMSO 24 h, control had very few swirls
  swirls of secreted oil on the culture surface: a number of swirls on the surface
KAS603, a Chlorella sp. [6]; 0.05 mM glyburide for 24 hrs
  β-carotene and chlorophyll outside the cells (HPLC): neither β-carotene nor chlorophyll were detected outside the cells
KAS603, a Chlorella sp. [6]; 0.05 mM glyburide, control group not coloured
  appearance of raw hexane extractions: visibly colored
KAS603, a Chlorella sp. [6]; 4 hours after glyburide
  external oil recovered by hexane sweep (in words): no immediate increases in external oil
KAS603, a Chlorella sp. [6]; 24 hours after glyburide exposure
  external oil recovered by hexane sweep (in words): significantly larger quantities of oil were recovered
KAS603, a Chlorella sp. [6]; T = 0 (at glyburide addition), cultures pre-treated 48 h with 0.3 mM sodium oxamate, listed as GLB1
  Weights of oil recovered from outside cells following glyburide treatment: 0.0003 g
KAS603, a Chlorella sp. [6]; T = 0 (at glyburide addition), cultures pre-treated 48 h with 0.3 mM sodium oxamate, listed as GLB2
  Weights of oil recovered from outside cells following glyburide treatment: 0.0002 g
KAS603, a Chlorella sp. [6]; T = 0 (at glyburide addition), cultures pre-treated 48 h with 0.3 mM sodium oxamate, listed as GLB3
  Weights of oil recovered from outside cells following glyburide treatment: 0.0003 g
KAS603, a Chlorella sp. [6]; T = 4 hours after 0.05 mM glyburide, oxamate pre-treated cultures, listed as GLB1
  Weights of oil recovered from outside cells following glyburide treatment: 0.0002 g
KAS603, a Chlorella sp. [6]; T = 4 hours after 0.05 mM glyburide, oxamate pre-treated cultures, listed as GLB2
  Weights of oil recovered from outside cells following glyburide treatment: 0.0004 g
KAS603, a Chlorella sp. [6]; T = 4 hours after 0.05 mM glyburide, oxamate pre-treated cultures, listed as GLB3
  Weights of oil recovered from outside cells following glyburide treatment: 0.0004 g
KAS603, a Chlorella sp. [6]; T = 24 hours after 0.05 mM glyburide, oxamate pre-treated cultures, listed as GLB1
  Weights of oil recovered from outside cells following glyburide treatment: 0.0016 g
KAS603, a Chlorella sp. [6]; T = 24 hours after 0.05 mM glyburide, oxamate pre-treated cultures, listed as GLB2
  Weights of oil recovered from outside cells following glyburide treatment: 0.0014 g
KAS603, a Chlorella sp. [6]; T = 24 hours after 0.05 mM glyburide, oxamate pre-treated cultures, listed as GLB3
  Weights of oil recovered from outside cells following glyburide treatment: 0.0013 g
KAS603, a Chlorella sp. [6]; glyburide treated groups vs control
  quantity of lipid species of intermediate polarity (between FFA and 1,3DG) in extracellular lipids, TLC: significantly increased
KAS603, a Chlorella sp. [6]; glyburide treated vs untreated, 24 h
  external hydrocarbon (HPLC): An increase in external hydrocarbon
